From patent US8026217B2, “Compositions and methods for treating neural anoxia and spreading depression” (Florida Atlantic University, priority 2007, dated 2011)
“Also recorded” adds a separate entry of the source. Read-outs that look alike come from different tables or passages of the source.

What was measured:
[1] = test system: metathoracic ganglion of the locust; assay: SD-like events evoked by high-potassium (KCl 150 mM) injection into the locust metathoracic ganglion; type: in vivo, Locusta migratoria; conditions: for time to recover ventilatory central pattern generator (vCPG) function following SD: Example 5, NO synthase inhibitor and NO donors, FIG. 4G
Source text: CSD is increasingly accepted as a primary causative agent for migraine, particularly migraine with aura. The cellular mechanisms underlying stroke, seizures and migraine are not exclusive to mammals. Using the locust (Locusta migratoria), a proven model for examining the effects of heat stress on CNS activity, a rapid rise in extracellular potassium ([K^+]o) during anoxia/hypoxia, extreme heat, and ouabain exposure was monitored. This phenomenon has all the characteristics of SD in the neocortex of mammals. Since the physiological mechanisms observed in locust SD-like events are similar to that of mammals, findings in this insect model are predictably transferable to mammals, including humans. In the locust, model SD-like events were triggered in the CNS by injecting small volumes of saline containing high levels of potassium ions (KCl at 150 mM instead of the nominal resting level of 10 mM) into the metathoracic ganglion. Potassium-sensitive microelectrodes were used to measure SD generated by KCl injections, while manipulating the PKG pathway.
This tissue response is characterised by a transient surge and subsequent clearance of potassium ions in the extracellular space ([K^+]o). During SD-like events ventilatory motor activity ceases. This was monitored using an electromyographic electrode positioned on an abdominal muscle used for ventilation (Ventilatory EMG). Upon restoration of the potassium ion gradient the neural activity recovered and preparations began to ventilate again.
The first injection was used as a control. Following the first injection, animals were allowed 10 minutes of perfusion with standard locust saline before treatment with bath applications of selected drugs (i.e. KT5823, T-0156). All drugs were dissolved in a minimum amount of DMSO before further dilution with standard locust saline to a concentration of 10^−5M and were superfused over the metathoracic ganglion for 10 minutes before the second injection. A total of 20 minutes elapsed between the first and second injection in all experiments. As shown in Figure (Bi), duration at half the maximum amplitude was used to characterize the severity of SD-like events. A significant increase was observed following the second injection when compared to the first in control animals. […] Heat shock (HS) preconditioning reduced SD duration evoked by the first and second injections. […] Numbers in the histogram bars indicate number of preparations tested. Asterisks indicate statistically significant differences between the first and second injection ([…]).
Motor pattern activity was not measured for T-0156/Cantharidin treatments. […] Figure (Cii) illustrates the drug effects by showing the percentage difference in rhythm recovery time (second injection relative to first injection).
Single SD events were evoked by injection of saline (50 nL) containing elevated potassium chloride (150 mM vs. 10 mM) directly into the metathoracic ganglion. […] During SD, ventilatory motor activity monitored electromyographically (EMG) ceased and recovered upon restoration of the potassium ion gradient. The duration of the [K^+]o wave at half its maximal amplitude and the time from failure of motor patterning to the recovery of a ventilatory rhythm were measured. […] Numbers in brackets represent sample size.
As in Example 3, SD events were evoked by injection of saline (50 nL) containing elevated potassium chloride (150 mM vs. 10 mM) directly into the metathoracic ganglion of locust preparations.

NO-producing cells = assay: DAF2-DA staining of NO-producing cells in locust metathoracic ganglion; type: cell-based, Locusta migratoria; conditions: 100 μM; 3 minutes at 35° C.
Protocol: The pattern of cell staining was similar to that of NOS staining in Schistocerca gregaria and L. migratoria (Müller and Bicker, The Journal of Neuroscience 14:7521-7528, 1994; Bullerjahn and Pflüger, Zoology 106:3-17, 2003). The scale in the Figure is 500 μm. FIGS. 4B and 4C show fluorescing cell bodies at room temperature (20° C.) (4B) and immediately following exposure to heat (35° C.) (4C) (scale for both Figures is 50 μm). The change in fluorescence following exposure to heat was quantified as shown in FIG. 4D (3 minutes at 35° C., shown by bar above x-axis). The difference between cell body fluorescence and background more than doubled immediately following exposure to heat (t=5 minutes). […] Fluorescence was measured from the brightest 3 cells from each ganglion. [Sample sizes: Control, n=7; LNAME, n=4; and No heat, n=3. Asterisks indicate significant differences of control from LNAME and No heat groups (Tukey, p<0.05).]

[2] = test system: adult Drosophila melanogaster; type: in vivo; conditions: sitter adults, volatilized from DMSO 1 hr, 1 mM KT5823, 1 mM Cantharidin, 200 mM DCA, 10 mM 8-Bromo cGMP, 10 mM T-0156, versus DMSO sham
Protocol: FIG. 9 is a diagram illustrating in vivo treatment of adult Drosophila melanogaster with pharmacological agents. […] Adult sitters were exposed to various drugs known to target components of the PKG pathway (FIG. 8A). These drugs included: 10 mM T0156, a cGMP-specific phosphodiesterase-5 inhibitor, 10 mM 8-Bromo-cGMP, a PKG activator, 1 mM KT5823, a PKG inhibitor, 1 mM Cantharidin, a PP2A inhibitor, and 200 mM DCA, a K^+ channel activator. All drugs were solubilized in dimethyl sulfoxide (DMSO), where flies treated with only DMSO were used as sham controls. […] 10 μL of drug solution was applied to a crushed Kim wipe at the bottom of each 10 mL test vial. An additional Kim wipe was crushed over top of this to prevent direct contact between the fly and solution. 10 flies were then placed in the vial which was capped with a semi-permeable buzz-stopper, covered with a cut-out finger of a large latex glove to prevent chemical vapours from escaping, and incubated in the dark. The flies were subjected to the drug for 1 hr prior to each behavioural assay. In the drug combination experiments, 20 uL of DMSO was used as a control sham, and combinations of two pharmacological treatments were added as two separate 10 uL aliquots.
Whether or not fly PKG levels could be manipulated in vivo using a technique that uses volatilization of pharmacological agents was next examined. The role of these targets in vivo using sitter flies was examined by depositing pharmacological agents dissolved in DMSO on a cellulose tissue, and allowing them to volatize over minutes in an air tight vial at room temperature (FIG. 9). Adults were exposed to the volatilized compound for one hour in the dark and then assayed for locomotory resilience to acute hypoxia. Control sham animals (FIG. 7A) were treated with only DMSO. Compounds were chosen to target different components of the cGMP pathway (FIG. 8A) in tracheal smooth muscle and Chinese hamster ovary cells, where cGMP activates PKG, thereby activating PP2A, which then de-phosphorylates K^+ channels. The hypothesis that inhibition of this pathway would result in an increase in whole cell K^+ channel conductance, thereby leading to increased resilience to anoxic coma onset, was tested.
Locomotory Tolerance Assay during Acute Hypoxia: Ten flies (separated into males or females) from each of the three strains (rover [for^R], sitter [for^S] and for^s2) were selected and placed in three separate vials with food at least 24 hours before each experiment. At the time of the experiment, flies were emptied into 10 mL empty test vials covered with permeable sponge caps of equivalent thickness, allowing for consistent gas exchange. These test vials were then placed into a 600 mL beaker which was covered with parafilm, creating a closed chamber with an escape hole (1 cm diameter). The parafilm top was punctured with a needle connected to a gas tank (by a plastic hose), through which the inert gas argon was expelled. […] The needle tip was fastened to the bottom of the beaker and inserted into a larger sponge of similar texture to the vial sponge caps to ensure that gas expelled from the needle was dispersed equally throughout the beaker. Also, to ensure that all test vial positions in the beaker received equal gas flow, test vial positions were alternated every trial to reduce variability.
The experiment required exposing the test vials with 10 flies in the container to pure argon gas expelled from the tank at a flow rate of 600 cc/min+/−5%. Time of behavioural failure was recorded by observing the fly undergo a seizure, which was quickly followed by an anoxic coma.

PKG = PKG enzyme activity assay on heads of treated flies; type: biochemical, Drosophila melanogaster; conditions: heads of sitter flies treated in vivo with volatilized agent; versus sham control
Protocol: PKG enzyme activity assays: PKG enzyme activity assays were conducted according to the procedure outlined in Kaun et al. (J Exp Biol. 210(Pt 20):3547-3558, 2007). Adult Drosophila were decapitated and the heads were homogenized in 25 mM 1-1 Tris (pH 7.4), 1 mM 1-1 EDTA, 2 mM 1-1 EGTA, 5 mM 1-1 β-mercaptoethanol, 0.05% Triton X-100 and protease inhibitor solution (Roche Diagnostics). Following microcentrifugation for 5 min, the supernatant was removed and those supernatants containing equal amounts of total protein were examined for PKG enzyme activity. The reaction mixture contained the following substances: 40 mM 1-1 Tris-HCl (pH 7.4), 20 mM 1-1 magnesium acetate, 0.2 mM 1-1 [γ^32P]ATP (500-1000 c.p.m. pmol−1), […] heptapeptide (RKRSRAE), (SEQ ID NO:6), (3 mM 1-1 cGMP and a highly specific inhibitor of cAMP-dependent protein kinase. The next step of the procedure involved incubating the reaction mixtures at a temperature of 30° C. for 10 min, followed by ending the reaction by spotting 70 μl of the reaction mixture onto Whatman P-81 filters. To remove any unreacted [γ^32P]ATP, these spots were then soaked with 75 mM 1-1 H3PO4 for 5 min and washed three times with 75 mM 1-1 H3PO4. Before quantifying enzyme activity, filters were rinsed with 100% ethanol and air dried. To calculate PKG enzyme activity, counts were taken in a Wallac 1409 Liquid Scintillation Counter using universal scintillation cocktail (ICN). PKG activity was presented in the figures as pmol of ^32P incorporated into the substrate min−1 mg−1 protein.

zebrafish = assay: Zebrafish behaviour during acute anoxia; type: in vivo; conditions: whole zebrafish in anoxic water post-treatment; expected
Source text: Vertebrate (zebrafish) behaviour is examined during acute anoxia. Whole zebrafish are exposed to anoxic water post-treatment with a PDE5 inhibitor, 8-bromo-GMP, KT5823, and Cantharidin. The time until the animal knocks out during anoxia is monitored.

mammals (mouse or rat) = assay: Spreading depression in mammals; type: in vivo; conditions: expected
Source text: The pharmacological effects of a PDE5 inhibitor, 8-bromo-GMP, KT5823, and Cantharidin during spreading depression are examined in mammals (mouse or rat).

respiratory brain slices = assay: Neural function in respiratory brain slices during sodium azide-induced anoxia; set-up: species or system mouse or rat; conditions: expected
Source text: Neural function in mammals (mouse or rat) is examined pharmacologically during acute anoxia in respiratory brain slices via sodium azide, which chemically induces anoxia. Following administration of the sodium azide, the time until neural failure is monitored. This is done in the presence of a PDE5 inhibitor, 8-bromo-GMP, KT5823, and Cantharidin.

Row | Compound | time to recover ventilatory central pattern generator (vCPG) function following SD [1] | time to anoxic coma onset during acute hypoxia, single agents [2] | head PKG enzyme activity (PKG) | further results
1 | COC(=O)[C@@H](N)CCCNC(=N)N[N+](=O)[O-] [LNAME, N(G)-nitro-L-arginine methyl ester] | dramatically reduced the length of time taken to recover ventilatory central pattern generator (vCPG) function following SD | – | – | DAF2-DA cell body fluorescence in response to heat stress (NO-producing cells): prevented the increased fluorescence in response to heat stress
2 | N[C@@H](CCC(=O)N[C@@H](CSN=O)C(=O)NCC(=O)O)C(=O)O [SNOG, S-nitrosoglutathione] | did not exacerbate recovery times beyond that of control preparation times | – | – | –
3 | COC(=O)c1c(-c2cc(OC)c(OC)c(OC)c2)c2ccnc(OCc3ncccn3)c2c(=O)n1Cc1ccnc(C)c1 [T-0156] | – | exhibited significant sensitivity to anoxic coma | significant increase in PKG activity levels compared with sitter control shams; also recorded: demonstrated significant effects compared to that of the sham control | time to anoxic coma onset during acute hypoxia, single agents ([2]; listed as T0156): increased sensitivity to acute hypoxia; length of time to recover ventilatory motor pattern activity after SD ([1]; Example 1, bath application 10^-5 M for 10 minutes before second KCl injection): took significantly longer to recover motor pattern activity after the second injection; recovery time of ventilatory rhythm, second event versus first ([1]; Example 3, drug applied for 10 minutes prior to second injection, FIG. 3D): The recovery time was increased
4 | CC(=O)N[C@@H](C(=O)O)C(C)(C)SN=O [SNAP, S-nitroso-N-acetyl-D-penicillamine] | did not exacerbate recovery times beyond that of control preparation times | – | – | –
5 | CC12C(=O)OC(=O)C1(C)C1CCC2O1 (centres unmarked) [Cantharidin, Hexahydro-3a,7a-dimethyl-4,7-epoxyisobenzofuran-1,3-dione] | – | demonstrated significant resilience to anoxic coma | PKG activity levels did not differ; also recorded: showed no significant effects on PKG enzyme activity levels compared to sham controls | time until the animal knocks out during anoxia (zebrafish): neuroprotection and prolonged behaviour when subject to anoxia; SD-like events and neural function (mammals (mouse or rat)): neuroprotection and reduces SD-like events thereby prolonging neural function; time until neural failure (respiratory brain slices): neuroprotection and prolonged neural function when subject to anoxia
